One test addresses human MOR (CHO cells) (Homo sapiens, UniProt P35372). Nature of the test: […]GTPγS binding, CHO membranes. The format is biochemical. Conditions: 10 μmol/L GDP, pH 7.4, RT; no G protein activation.
Test [1] concerns the target T1, DOR-eGFP (Mus musculus, UniProt P32300). Nature of the test: DOR-eGFP internalization, confocal imaging. Conditions: agonist, 1 μmol/L; blocked by naltrindole.
For test [2], the target named is T1, DOR-eGFP. The experiment in a line: DOR-eGFP internalization, confocal imaging. The settings on record: agonist; control 73.8 ± 2.6%; myenteric neurons of colon.

Data on 2 compounds can be found in paper PMC7036548 (Cellular and Molecular Gastroenterology and Hepatology, 2019).

T1 sequence (P32300 whole entry): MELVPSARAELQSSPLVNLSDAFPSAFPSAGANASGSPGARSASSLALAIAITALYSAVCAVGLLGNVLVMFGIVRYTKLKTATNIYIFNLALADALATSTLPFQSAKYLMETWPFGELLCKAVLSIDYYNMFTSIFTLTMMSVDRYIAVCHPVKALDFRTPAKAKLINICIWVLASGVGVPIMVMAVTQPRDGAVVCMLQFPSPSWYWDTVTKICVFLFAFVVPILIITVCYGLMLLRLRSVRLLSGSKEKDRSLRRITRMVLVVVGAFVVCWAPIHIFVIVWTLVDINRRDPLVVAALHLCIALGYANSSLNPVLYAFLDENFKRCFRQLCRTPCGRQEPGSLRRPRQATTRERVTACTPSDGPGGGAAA
Chain of human MOR (CHO cells) (P35372 whole entry): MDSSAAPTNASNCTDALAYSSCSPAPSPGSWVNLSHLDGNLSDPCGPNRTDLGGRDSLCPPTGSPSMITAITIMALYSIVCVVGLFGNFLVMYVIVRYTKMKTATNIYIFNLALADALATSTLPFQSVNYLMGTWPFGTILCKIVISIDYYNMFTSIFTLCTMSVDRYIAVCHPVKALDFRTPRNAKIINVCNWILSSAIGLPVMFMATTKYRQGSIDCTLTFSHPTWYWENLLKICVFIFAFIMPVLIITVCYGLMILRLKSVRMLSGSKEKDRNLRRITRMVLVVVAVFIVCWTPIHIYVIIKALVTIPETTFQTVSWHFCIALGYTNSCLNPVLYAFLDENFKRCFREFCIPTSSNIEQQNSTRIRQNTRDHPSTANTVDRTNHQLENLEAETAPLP

As for `CCOC(=O)C1(CCc2ccccc2)CCN(Cc2ccc(NC(C)=O)cc2)CC1` [CYM51010], the “[35S]GTPγS binding, CHO membranes” value at human MOR (CHO cells) is recorded as “increase in G protein activation only in DOR expressing CHO cells”. For the same compound, the “DOR-eGFP internalization, confocal imaging” value at DOR-eGFP [1] is “CYM51010 promoted robust internalization of DOR-eGFP in both myenteric and submucosal neurons”.
`C=CCN1C[C@H](C)N([C@H](c2ccc(C(=O)N(CC)CC)cc2)c2cccc(OC)c2)C[C@H]1C` [SNC80]: the “% cell surface DOR-eGFP at 1 μmol/L” value on DOR-eGFP [2] came to 41.9 ± 2.9%.
